This test deals with Insulin-degrading enzyme (Homo sapiens) (UniProt P14735). The experiment in a line: IDE insulin-degradation inhibitors, late-stage follow-up, counter-screen for IDE inhibitor project, biochemical, TR-FRET, recombinant IDE (AID 624065). A general note: The purpose of a counterscreen is to sort out artefacts and off-target activity.

SMILES strings stand for the structures. Calls of active or inactive are those of the source. No rule for the calls is given here.

Insulin-degrading enzyme (Homo sapiens), sequence (P14735 whole entry, looked up): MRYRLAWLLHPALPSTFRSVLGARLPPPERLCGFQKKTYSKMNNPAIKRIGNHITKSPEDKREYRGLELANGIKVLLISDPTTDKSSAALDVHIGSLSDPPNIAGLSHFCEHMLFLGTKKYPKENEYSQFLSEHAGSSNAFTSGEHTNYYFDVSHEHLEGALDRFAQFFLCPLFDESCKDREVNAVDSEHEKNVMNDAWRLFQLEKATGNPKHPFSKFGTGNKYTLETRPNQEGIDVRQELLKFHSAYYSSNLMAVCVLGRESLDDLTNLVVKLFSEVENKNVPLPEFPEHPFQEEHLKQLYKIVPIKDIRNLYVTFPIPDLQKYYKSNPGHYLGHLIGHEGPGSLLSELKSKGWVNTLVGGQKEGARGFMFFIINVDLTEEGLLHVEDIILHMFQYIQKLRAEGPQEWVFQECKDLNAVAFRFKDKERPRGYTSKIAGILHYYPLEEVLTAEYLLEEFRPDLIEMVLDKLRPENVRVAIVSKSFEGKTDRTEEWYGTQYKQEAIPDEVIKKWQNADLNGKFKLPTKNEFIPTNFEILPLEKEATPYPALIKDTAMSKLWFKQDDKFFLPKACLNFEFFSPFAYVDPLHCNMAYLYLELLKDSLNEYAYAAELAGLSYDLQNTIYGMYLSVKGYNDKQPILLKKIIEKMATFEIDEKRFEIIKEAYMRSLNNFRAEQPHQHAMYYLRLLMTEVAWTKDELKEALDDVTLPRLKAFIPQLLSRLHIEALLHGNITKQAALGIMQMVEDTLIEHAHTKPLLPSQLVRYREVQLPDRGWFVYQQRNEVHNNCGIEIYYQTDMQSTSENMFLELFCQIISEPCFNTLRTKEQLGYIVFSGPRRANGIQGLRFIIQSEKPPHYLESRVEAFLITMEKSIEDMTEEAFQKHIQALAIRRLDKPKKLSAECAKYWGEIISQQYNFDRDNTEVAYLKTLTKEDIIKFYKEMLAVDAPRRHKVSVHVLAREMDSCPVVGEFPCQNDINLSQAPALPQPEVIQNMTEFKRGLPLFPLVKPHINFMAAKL

The term IC50 denotes the concentration that inhibits the measured activity by half. For `CCN(CC)c1ccc(/C=C2\C(=N)N3N=C(CC(=O)N4CCOCC4)SC3=NC2=O)cc1`, the IC50 is > 10 µM (inactive).

On to `Cn1c(=O)c(C(=O)CN2CCCc3ccccc32)c(N)n(Cc2ccccc2)c1=O`, for which the IC50 is > 10 µM (inactive). As for `O=C(Nc1cccc(C(F)(F)F)c1)c1csc(-c2ccncc2)n1`, the figure is > 10 µM (inactive); as for `O=c1c2ccccc2sn1-c1cc(S(=O)(=O)N2CCOCC2)ccc1N1CCOCC1`, 4 µM; as for `Cc1c(CCC(=O)NCCCn2ccnc2)c(=O)oc2cc3oc4c(c3cc12)CCCC4`, > 10 µM (inactive). In the case of `COc1cc(/C=C2\SC(=S)N(NC(C)=O)C2=O)ccc1OC(=O)c1ccco1` it was > 10 µM (inactive); in that of `COc1ccc(C(=O)N2CCN(C(=O)C3COc4ccccc4O3)CC2)cc1OC` (stereo unspecified), 4.1 µM; in that of `Nc1c(C(=O)Nc2nccs2)sc2nc(-c3cccs3)cc(C(F)(F)F)c12`, > 10 µM (inactive). In the case of `Clc1cccc(-c2nnc(SCc3nc4ccccc4[nH]3)n2Cc2ccco2)c1` it was > 10 µM (inactive); in that of `CCOc1ccc2[nH]c3c(N4CCN(C(=O)c5ccco5)CC4)ncnc3c2c1`, > 10 µM (inactive).

On to `COc1cccc(-c2nnc(SCc3nc4ccccc4[nH]3)n2Cc2ccco2)c1`, for which the IC50 is > 10 µM (inactive). As for `O=C(O)c1ccccc1NS(=O)(=O)c1cccc(-n2sc3ccccc3c2=O)c1`, the figure is 4 µM; as for `Cc1ccc(C)c(N2C(=N)S/C(=C\c3ccc(-c4ccccc4C(=O)O)o3)C2=O)c1`, > 10 µM (inactive). As for `O=C(C1CC1)N1CCN(c2ccnc3cc(Cl)ccc23)CC1`, the figure is > 10 µM (inactive). In the case of `Cc1cccc(-c2nnc(SCc3nc4ccccc4[nH]3)n2Cc2ccco2)c1` it was > 10 µM (inactive); in that of `O=C(Nc1ccc2oc(-c3cccnc3)nc2c1)c1ccc2c(c1)OCCO2`, > 10 µM (inactive).

The record behind these values is PubChem BioAssay AID624065 (The Scripps Research Institute Molecular Screening Center, 2012).
